Measured values from BindingDB's records for doi:10.1124/mol.112.080291 (University of California San Diego, 2014).
Several values for one entry are separate records, joined by “and”; a condition that tells them apart may be missing. Identical values can stand only once.

Assays:
Experiment in all cases: Synthesizing Selective Agonists for the ?7 Nicotinic Receptor with in situ Click-Chemistry on Acetylcholine Binding Protein Templates.
[1] = target: Acetylcholine-binding protein (Lymnaea stagnalis, UniProt P58154); conditions: pH 7.4; 20 °C
Procedure: (§1) Assay Description 2 Assays used to generate Ki or EC50 values. 1) SPA Assay - Quick screen binding assays were performed using 100 l of 0.2 mg/ml anti-mouse SPA antibody-binding beads (Amersham Biosciences) mixed with 33.6 g of monoclonal anti-FLAG M2 antibody from mouse (Sigma) in 0.1 M NaPO4 buffer, pH 7.0 (SPA mixture). Media (5l) collected 2 days after transfection were added to the mixture and finally 10 l of (+)-[3H]epibatidine (PerkinElmer Life Sciences) was added at a final concentration of 10 nM. Solutions were each counted for 1 min on either a Beckman LS 6500 liquid scintillation counter or Wallac 1450 Microbeta Trilux. Negative and positive controls consisted of media (5 l) from the respective transfections. Nonexpressing mutants were transfected and verified de novo in triplicate. Western immunoblots were also performed upon media (15 l) from transfections to verify the lack of expression. Competition curves and direct binding were measured following the protocol p

[2] = target: T1, 5-hydroxytryptamine receptor 3A (Mus musculus, UniProt P23979); conditions: pH 7.4; 37 °C
T1 sequence (P23979 whole entry): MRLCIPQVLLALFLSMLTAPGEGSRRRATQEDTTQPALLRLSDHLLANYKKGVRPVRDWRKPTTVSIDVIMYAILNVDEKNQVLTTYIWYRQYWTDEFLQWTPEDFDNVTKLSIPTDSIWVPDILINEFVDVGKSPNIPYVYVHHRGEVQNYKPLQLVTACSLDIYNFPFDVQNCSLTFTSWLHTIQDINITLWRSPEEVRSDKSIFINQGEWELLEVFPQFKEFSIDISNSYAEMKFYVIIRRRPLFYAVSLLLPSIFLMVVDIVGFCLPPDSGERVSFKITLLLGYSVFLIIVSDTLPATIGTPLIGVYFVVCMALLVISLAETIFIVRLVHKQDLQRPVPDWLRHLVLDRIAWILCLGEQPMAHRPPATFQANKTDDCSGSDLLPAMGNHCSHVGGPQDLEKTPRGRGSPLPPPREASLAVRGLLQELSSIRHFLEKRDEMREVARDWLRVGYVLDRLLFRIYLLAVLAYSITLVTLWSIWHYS
Procedure: as §1

[3] = target: T2, Soluble acetylcholine receptor (Aplysia californica, UniProt Q8WSF8); conditions: pH 7.4; 20 °C
T2 sequence (Q8WSF8 whole entry): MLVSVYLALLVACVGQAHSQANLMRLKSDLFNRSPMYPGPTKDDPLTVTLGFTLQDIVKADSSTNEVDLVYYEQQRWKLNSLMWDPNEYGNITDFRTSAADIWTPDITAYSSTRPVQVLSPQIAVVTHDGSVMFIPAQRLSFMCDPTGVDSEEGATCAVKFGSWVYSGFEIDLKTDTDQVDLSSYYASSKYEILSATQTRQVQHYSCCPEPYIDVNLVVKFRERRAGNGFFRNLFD
Procedure: as §1

[4] = target: Neuronal acetylcholine receptor subunit alpha-4 (Homo sapiens, UniProt P43681); conditions: pH 7.4; 37 °C
Procedure: as §1

[5] = target: Neuronal acetylcholine receptor subunit alpha-7 (Homo sapiens, UniProt P36544); conditions: pH 7.4; 37 °C
Procedure: as §1

Chain of Neuronal acetylcholine receptor subunit alpha-4 (P43681 whole entry): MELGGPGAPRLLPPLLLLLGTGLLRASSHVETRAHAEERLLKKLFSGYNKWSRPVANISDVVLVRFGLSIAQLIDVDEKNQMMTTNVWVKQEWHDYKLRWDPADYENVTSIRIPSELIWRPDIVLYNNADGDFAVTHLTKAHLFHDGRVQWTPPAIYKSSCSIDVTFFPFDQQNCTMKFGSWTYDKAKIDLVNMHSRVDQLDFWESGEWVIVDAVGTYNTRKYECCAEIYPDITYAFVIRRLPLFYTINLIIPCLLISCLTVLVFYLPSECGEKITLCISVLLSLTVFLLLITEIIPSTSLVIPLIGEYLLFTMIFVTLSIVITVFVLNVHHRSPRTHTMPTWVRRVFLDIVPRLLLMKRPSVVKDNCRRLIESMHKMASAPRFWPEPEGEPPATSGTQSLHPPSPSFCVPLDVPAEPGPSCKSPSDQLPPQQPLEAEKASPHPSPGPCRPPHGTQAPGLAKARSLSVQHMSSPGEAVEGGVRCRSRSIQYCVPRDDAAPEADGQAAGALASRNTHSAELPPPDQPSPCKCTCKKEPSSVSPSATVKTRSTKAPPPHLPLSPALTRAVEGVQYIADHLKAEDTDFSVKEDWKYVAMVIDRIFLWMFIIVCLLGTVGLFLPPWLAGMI
Chain of Acetylcholine-binding protein (P58154 whole entry): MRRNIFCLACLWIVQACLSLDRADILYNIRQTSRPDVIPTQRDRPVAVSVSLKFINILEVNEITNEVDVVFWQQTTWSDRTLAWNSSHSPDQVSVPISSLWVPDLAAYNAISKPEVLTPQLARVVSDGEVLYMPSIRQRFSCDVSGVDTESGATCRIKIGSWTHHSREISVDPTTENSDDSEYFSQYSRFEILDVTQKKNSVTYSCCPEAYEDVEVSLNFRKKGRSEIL
Chain of Neuronal acetylcholine receptor subunit alpha-7 (P36544 whole entry): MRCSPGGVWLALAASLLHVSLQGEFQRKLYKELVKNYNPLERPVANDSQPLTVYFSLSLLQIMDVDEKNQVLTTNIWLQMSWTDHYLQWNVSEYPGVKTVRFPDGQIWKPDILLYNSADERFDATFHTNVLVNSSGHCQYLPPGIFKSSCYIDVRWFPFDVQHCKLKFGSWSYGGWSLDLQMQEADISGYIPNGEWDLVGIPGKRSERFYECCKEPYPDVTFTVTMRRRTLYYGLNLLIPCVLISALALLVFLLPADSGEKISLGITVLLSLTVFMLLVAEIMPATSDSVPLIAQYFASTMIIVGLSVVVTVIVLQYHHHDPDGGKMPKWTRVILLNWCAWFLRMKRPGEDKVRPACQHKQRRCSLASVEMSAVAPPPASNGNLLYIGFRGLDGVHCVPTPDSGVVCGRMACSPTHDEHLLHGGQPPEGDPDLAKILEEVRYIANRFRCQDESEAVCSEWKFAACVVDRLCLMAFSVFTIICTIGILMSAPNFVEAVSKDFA

## CN1[C@@H]2CC[C@H]1C[C@H](n1cc(C3(O)CCCCC3)nn1)C2 [11t]
[1]
  Ki: > 5 µM
[2]
  Ki: > 30 µM
[3]
  Ki: > 5 µM
[4]
  Ki: > 30 µM
[5]
  EC50: > 30 µM

## C[N+]1(C)[C@@H]2CC[C@H]1C[C@H](n1cc(CNC(=O)N3c4ccccc4CCc4ccccc43)nn1)C2 [23q]
[1]
  Ki: 0.5 µM
[2]
  Ki: > 30 µM
[3]
  Ki: 0.42 µM and 1 µM and 2 µM
[4]
  Ki: 30 µM
[5]
  EC50: 8 µM
